Reference: patent US20040214850A1, “1-glyoxylamide indolizines for treating cancer” (Synta Pharmaceuticals Corp., priority 2001, published 2004)

Tests used:
[1] = system: MDA435 (human breast cancer); test: In vitro anti-cancer activity, MTS growth inhibition assay, MDA-435; type: cell-based; settings: MDA-435 cells, 72 hours
Protocol: (§1) The in vitro activity of the compounds was determined in the following seven human cancer cell lines. MDA435 (human breast cancer), MIP101 (human colon cancer), HL-60 (human myeloid leukemia), U937 (human leukemia), p388 (murine leukemia), DU-145 (human prostate cancer), MES-SA (human uterine sarcoma) were obtained from ATCC (American Type of Culture Collection).
(§2) The cell lines were maintained in RPMI1640 (GIBCO) supplemented with 10% FCS, 100 units/ml penicillin, 100 ug/ml streptomycin, and 2 mM L-glutamine. The cells were split every third day and diluted to a concentration of 2×10^5 cells/ml one day before experiment. All experiments were performed on exponentially growing cell culture. Cell densities were 2.5×10^4 cells/ml in all experiment.
(§3) A stock solution of Compound (1) and a stock solution of Taxol (positive control) were prepared by dissolving the compound at a concentration of 1 mM in 100% DMSO. Final concentrations were obtained by diluting the stock solution directly into the tissue culture medium. Cells were incubated with varying concentrations of the compounds for 72 hours and the IC50 was determined by MTS (i.e. 3-(4,5,-dimethylthiazol-2-yl)-2,5-diphenyl tetrazolium bromide) assay. IC50 stands for the concentration of compound required to inhibit 50% tumor cell growth.

[2] = system: seven cancer cell lines from different tissue types; test: Text summary: in vitro activity over the seven cancer cell lines of Table 1; type: cell-based; settings: range over the seven cell lines of Table 1; read-out: IC50 against seven cancer cell lines
Protocol: as §1, §2, §3

[3] = system: HL-60 (human myeloid leukemia); test: In vitro anti-cancer activity, MTS growth inhibition assay, HL-60; type: cell-based; settings: HL-60 cells, 72 hours
Protocol: as §1, §2, §3

[4] = system: MDR cell lines (MES-SA/DX5, HL-60/TX1000); test: in vitro activity over the two MDR cell lines; type: cell-based, human; settings: MES-SA/DX5, HL-60/TX1000; in words
Protocol: as §2, §3
(§4) In vitro activity was determined in two MDR (Multi Drug Resistant) human cancer cell lines. HL-60/TX1000 was isolated in vitro by subculturing HL-60 in progressively higher concentration of Taxol. HL-60/TX1000 cells over-express mdr-1 mRNA and p-glycoprotein, as determined by western blot and immunofluorescence labeling with antiPGP antibodies. The cell is cross-resistant to Taxol, Vincristine, Adriamycin, Etoposide and Doxorubicin. MES-SA/Dx5 was established in the presence of increasing concentrations of Doxorubicin. […] MES-SA/Dx5 was purchased from ATCC.
(§5) The procedure for culturing the cells and assaying cancer cell growth inhibition were as described in Example 3.

[5] = system: HL-60/TX1000 (multi-drug resistant human myeloid leukemia cell line); test: In vitro activity against multi-drug resistant cell line HL-60/TX1000; type: cell-based; settings: HL60/TX1000, HL-60/TX1000 MDR cells (Table 2)
Protocol: as §2, §3, §4, §5

p388 (murine leukemia) = test: In vitro anti-cancer activity, MTS growth inhibition assay, p388; type: cell-based; settings: Mus musculus, p388 cells, 72 hours
Protocol: as §1, §2, §3

U937 (human leukemia) = test: In vitro anti-cancer activity, MTS growth inhibition assay, U-937; type: cell-based; settings: U-937 cells, 72 hours
Protocol: as §1, §2, §3

[6] = system: MIP101 (human colon cancer); test: In vitro anti-cancer activity, MTS growth inhibition assay, MIP-101; type: cell-based; settings: MIP-101 cells, 72 hours
Protocol: as §1, §2, §3

[7] = system: DU-145 (human prostate cancer); test: In vitro anti-cancer activity, MTS growth inhibition assay, DU-145; type: cell-based; settings: DU-145 cells, 72 hours, MTS assay (Table 1), read-out: IC50
Protocol: as §1, §2, §3
(§6) The protocol described in Examples 9-10 was used to assay inhibition by Compounds (20) (21) (24) and (28) on the growth of cancer cell lines MES-SA (human uterine sarcoma cell line) and DU-145 (human prostate cancer).

[8] = system: MES-SA (human uterine sarcoma); test: In vitro anti-cancer activity, MTS growth inhibition assay, MES-SA; type: cell-based; settings: MES-SA cells, 72 hours, MTS assay (Table 1), read-out: IC50
Protocol: as §1, §2, §3, §6

IC50 [1]: 50 nM
IC50 [2]: 10 to 50 nM
IC50 [3]: 10 nM
IC50 [5]: 20 nM
IC50 (p388 (murine leukemia)): 10 nM
IC50 (U937 (human leukemia)): 50 nM
IC50 [6]: 20 nM
IC50 [7]: 50 nM
IC50 [8]: 10 nM
SMILES: Cc1cc(NC(=O)C(=O)c2cc(Cc3ccc(C#N)cc3)n3ccccc23)sn1 [Compound (1), 2-(3-(4-cyanobenzyl)-indolizin-1-yl)-N-(3-methyl-isothiazol-5-yl)-2-oxo-acetamide]
anti-cancer activity against MDR cancer cell lines [4]: high anti-cancer activity
